Reference: PMC11775380, “Discovery of Novel Nav1.7-Selective Inhibitors with the 1H-Indole-3-Propionamide Scaffold for Effective Pain Relief” (Research, 2025)

Biological target: T1, human Nav1.7 (hNav1.7) (Homo sapiens, UniProt Q15858)
T1 construct: expressed in transfected cells; host or cells: HEK293T
Assay: Whole-cell patch-clamp inhibition of Nav1.7 currents in transfected HEK293T cells
Type: cell-based
Conditions: for inhibition at 10 µM: HEK-293T, 10 μM compound, inhibition rate of Nav1.7, read-out: Inhibitory activity (10 μM)
Experimental: Human embryonic kidney (HEK) 293T (ATCC CRL-3216) and ND7/23 cells (National Collection of Authenticated Cell Cultures SCSP-5026) were cultured under standard conditions (5% CO2, 37 °C) in Dulbecco’s modified Eagle’s medium (DMEM) containing 10% fetal bovine serum and 1% penicillin-streptomycin solution(all from Gibco, Thermo Fisher Scientific, Waltham, MA, USA). When the cells reached 70% to 90% confluence, human Nav1.2 (hNav1.2), human Nav1.3 (hNav1.3), human Nav1.4 (hNav1.4), human Nav1.5 (hNav1.5), and mouse Nav1.6 (mNav1.6) channel plasmids were cotransfected with enhanced green fluorescent protein (eGFP) into HEK293T cells. Additionally, plasmids expressing β1 and β2 subunits tagged with eGFP were cotransfected with the human Nav1.7 (hNav1.7) channel into HEK293T cells. Human Nav1.8 (hNav1.8) was transiently transfected into ND7/23 cells, along with eGFP, using Lipofectamine 2000 (Invitrogen), adhering strictly to the manufacturer’s protocol. For manual patch-clamp experiments, the cells were plated onto glass coverslips and used within 20 to 48 h of transfection.
Whole-cell patch-clamp recordings were conducted at 25 ± 2 °C, utilizing an EPC 10USB patch-clamp amplifier (HEKA Elektronik, Lambrecht, Germany). Pipettes, with access resistance between 2.0 and 3.0 MΩ, were pulled from borosilicate glass capillary tubes using a 2-step vertical microelectrode puller (PC-10, Narishige Group, Tokyo, Japan). Voltage-clamp recordings were obtained with PatchMaster software v2 × 73 (HEKA Elektronik) 5 min after establishing whole-cell configuration, sampled at 20 kHz, and filtered at 5 kHz. To minimize voltage errors, 80% series resistance compensation was applied. Pipettes were filled with 140 mM CsF, 10 mM NaCl, 1 mM EGTA, and 10 mM HEPES (pH=7.4, adjusted with CsOH). The external solution contained 140 mM NaCl, 2 mM CaCl2, 1 mM MgCl2, 5 mM KCl, 10 mM HEPES, and 10 mM glucose (pH=7.4, adjusted with NaOH). IC50 values were determined in HEK293T or ND7/23 cell lines by voltage clamping at −80 mV, followed by stepping to the V1/2 of inactivation for 8 s to facilitate compound binding.

T1 sequence (Q15858 whole entry): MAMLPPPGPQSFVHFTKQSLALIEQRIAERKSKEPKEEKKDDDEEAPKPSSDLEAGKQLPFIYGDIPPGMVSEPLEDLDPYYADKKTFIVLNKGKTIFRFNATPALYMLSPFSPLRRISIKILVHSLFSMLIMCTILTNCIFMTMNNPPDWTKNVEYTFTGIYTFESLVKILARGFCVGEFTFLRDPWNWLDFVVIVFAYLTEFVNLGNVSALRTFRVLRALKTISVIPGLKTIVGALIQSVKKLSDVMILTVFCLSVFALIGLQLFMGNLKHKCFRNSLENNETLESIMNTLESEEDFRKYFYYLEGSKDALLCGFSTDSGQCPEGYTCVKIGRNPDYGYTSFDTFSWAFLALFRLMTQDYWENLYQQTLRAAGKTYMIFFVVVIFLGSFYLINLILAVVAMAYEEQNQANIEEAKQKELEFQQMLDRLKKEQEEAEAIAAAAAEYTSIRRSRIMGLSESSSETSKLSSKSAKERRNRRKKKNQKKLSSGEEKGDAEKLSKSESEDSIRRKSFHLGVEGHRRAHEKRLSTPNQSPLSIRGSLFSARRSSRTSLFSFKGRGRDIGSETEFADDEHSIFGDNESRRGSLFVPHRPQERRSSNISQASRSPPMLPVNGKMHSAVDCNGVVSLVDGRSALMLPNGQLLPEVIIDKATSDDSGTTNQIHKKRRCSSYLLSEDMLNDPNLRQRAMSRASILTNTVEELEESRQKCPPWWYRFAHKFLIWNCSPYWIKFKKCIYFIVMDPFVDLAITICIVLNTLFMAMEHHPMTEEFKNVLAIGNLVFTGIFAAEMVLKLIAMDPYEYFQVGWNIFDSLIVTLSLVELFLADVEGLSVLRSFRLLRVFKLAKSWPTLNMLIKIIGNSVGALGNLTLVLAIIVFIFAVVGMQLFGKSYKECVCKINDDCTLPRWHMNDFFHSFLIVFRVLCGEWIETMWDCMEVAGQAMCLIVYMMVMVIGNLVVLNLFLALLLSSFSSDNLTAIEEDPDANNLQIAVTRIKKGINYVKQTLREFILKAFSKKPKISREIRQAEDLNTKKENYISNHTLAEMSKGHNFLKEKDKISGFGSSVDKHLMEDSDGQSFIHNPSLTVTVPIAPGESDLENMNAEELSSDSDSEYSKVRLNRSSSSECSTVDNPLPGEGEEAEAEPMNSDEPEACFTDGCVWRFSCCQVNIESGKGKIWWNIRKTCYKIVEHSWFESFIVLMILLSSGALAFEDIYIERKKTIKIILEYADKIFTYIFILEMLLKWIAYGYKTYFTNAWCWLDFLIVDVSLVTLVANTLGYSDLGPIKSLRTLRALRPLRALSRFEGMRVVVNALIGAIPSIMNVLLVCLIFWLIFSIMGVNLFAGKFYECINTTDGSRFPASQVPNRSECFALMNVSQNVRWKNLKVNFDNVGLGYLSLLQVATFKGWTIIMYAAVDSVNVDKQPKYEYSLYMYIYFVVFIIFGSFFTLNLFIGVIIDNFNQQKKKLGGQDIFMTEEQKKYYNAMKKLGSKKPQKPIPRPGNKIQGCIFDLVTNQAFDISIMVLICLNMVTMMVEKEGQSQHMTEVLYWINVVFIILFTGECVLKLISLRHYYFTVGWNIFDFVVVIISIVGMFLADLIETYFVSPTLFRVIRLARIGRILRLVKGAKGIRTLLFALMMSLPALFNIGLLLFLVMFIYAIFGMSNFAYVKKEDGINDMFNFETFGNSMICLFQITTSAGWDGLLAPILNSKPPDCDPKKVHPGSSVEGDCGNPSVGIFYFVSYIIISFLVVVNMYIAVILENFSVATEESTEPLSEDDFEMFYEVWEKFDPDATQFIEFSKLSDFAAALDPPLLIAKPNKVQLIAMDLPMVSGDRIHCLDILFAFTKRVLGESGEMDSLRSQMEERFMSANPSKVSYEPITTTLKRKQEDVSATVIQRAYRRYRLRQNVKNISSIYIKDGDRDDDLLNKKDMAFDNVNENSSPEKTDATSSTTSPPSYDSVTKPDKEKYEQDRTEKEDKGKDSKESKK
T1 sequence (Q07699 19-218 partner): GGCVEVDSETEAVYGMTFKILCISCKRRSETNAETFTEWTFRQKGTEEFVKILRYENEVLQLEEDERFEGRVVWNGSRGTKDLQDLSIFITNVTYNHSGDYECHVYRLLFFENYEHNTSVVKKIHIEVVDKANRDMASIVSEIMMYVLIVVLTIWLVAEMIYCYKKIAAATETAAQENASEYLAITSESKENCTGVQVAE
T1 sequence (O60939 30-215 partner): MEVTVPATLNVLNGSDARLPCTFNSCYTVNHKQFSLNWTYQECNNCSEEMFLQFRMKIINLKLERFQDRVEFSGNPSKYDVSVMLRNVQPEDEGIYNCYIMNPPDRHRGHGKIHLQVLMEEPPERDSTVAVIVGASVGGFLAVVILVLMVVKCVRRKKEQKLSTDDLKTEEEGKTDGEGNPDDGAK

Q: Which inhibition at 10 µM does the source give for O=C(CC(c1cccc(Oc2ccc(Cl)cc2)c1)c1cn(Cc2ccc(F)cc2)c2ccccc12)NCCc1ccccn1 (stereo not drawn) [B13, C1=CC=C2C(=C1)C(=CN2CC3=CC=C(C=C3)F)C(CC(=O)NCCC4=CC=CC=N4)C5=CC(=CC=C5)OC6=CC=C(C=C6)Cl] here?
A: 6.28%

Q: Which inhibition at 10 µM does the source give for O=C(CC(c1cccc(C(F)(F)F)c1)c1cn(Cc2ccc(F)cc2)c2ccccc12)NCCc1ccccn1 (stereo not drawn) [B33, C1=CC=C2C(=C1)C(=CN2CC3=CC=C(C=C3)F)C(CC(=O)NCCC4=CC=CC=N4)C5=CC(=CC=C5)C(F)(F)F] here?
A: 19.8%

Q: O=C(Nc1ccccc1C(F)(F)F)c1ccc2c(c1)C(=O)N(Cc1cccnc1)C2=O [A14, C1=CC=C(C(=C1)C(F)(F)F)NC(=O)C2=CC3=C(C=C2)C(=O)N(C3=O)CC4=CN=CC=C4] was tested. Which inhibition at 10 µM did it give?
A: 2.68%

Q: How did the inhibition at 10 µM turn out when Cn1cc(C(CC(=O)NCCc2ccccn2)c2cccc(C(F)(F)F)c2)c2ccccc21 (stereo not drawn) [B14, CN1C=C(C2=CC=CC=C21)C(CC(=O)NCCC3=CC=CC=N3)C4=CC(=CC=C4)C(F)(F)F] was run?
A: 24.8%

Q: COc1ccc(S(=O)(=O)Nc2ccc3c(c2)CCCN3C(=O)c2ccccc2)cc1OC [A2, COC1=C(C=C(C=C1)S(=O)(=O)NC2=CC3=C(C=C2)N(CCC3)C(=O)C4=CC=CC=C4)OC] was tested. Which inhibition at 10 µM did it give?
A: 36.6%

Q: Which inhibition at 10 µM does the source give for O=C(CC(c1ccc(F)cc1)c1cn(Cc2ccccc2)c2ccccc12)NCc1ccccn1 (stereo not drawn) [B2, C1=CC=C(C=C1)CN2C=C(C3=CC=CC=C32)C(CC(=O)NCC4=CC=CC=N4)C5=CC=C(C=C5)F] here?
A: 11.5%

Q: How did the inhibition at 10 µM turn out when Cc1ccc(Cn2cc(C(CC(=O)NC3CCCCC3)c3ccc(F)cc3)c3ccccc32)cc1 (stereo not drawn) [B9, CC1=CC=C(C=C1)CN2C=C(C3=CC=CC=C32)C(CC(=O)NC4CCCCC4)C5=CC=C(C=C5)F] was run?
A: 6.85%

Q: Which inhibition at 10 µM does the source give for O=C(CC(c1cccc(Cl)c1)c1cn(Cc2ccc(F)cc2)c2ccccc12)NCCc1ccccn1 (stereo not drawn) [B27, C1=CC=C2C(=C1)C(=CN2CC3=CC=C(C=C3)F)C(CC(=O)NCCC4=CC=CC=N4)C5=CC(=CC=C5)Cl] here?
A: 16%

Q: For O=C1OC(Nc2ccc(S(=O)(=O)Nc3ccccn3)cc2)c2ccccc21 (stereo not drawn) [A10, C1=CC=C2C(=C1)C(OC2=O)NC3=CC=C(C=C3)S(=O)(=O)NC4=CC=CC=N4], which inhibition at 10 µM is on record?
A: 2.74%

Q: Cc1ccc(Cn2cc([C@@H](CC(=O)NCCN(C)C)c3ccc(F)cc3)c3ccccc32)cc1 [WN2-S] was tested. Which IC50 (−80 mV holding, step to V1/2 of inactivation for 8 s, HEK293T) did it give?
A: 113 ± 36.9 nM

Q: Which inhibition at 10 µM does the source give for CCOc1ccc(C2N(c3ccc(Cl)c(Cl)c3)N=C(C(C)=O)N2c2ccc(N3CCN(C(C)=O)CC3)cc2)cc1 (stereo not drawn) [A13, CCOC1=CC=C(C=C1)C2N(C(=NN2C3=CC(=C(C=C3)Cl)Cl)C(=O)C)C4=CC=C(C=C4)N5CCN(CC5)C(=O)C] here?
A: 15.8%

Q: O=C(CC(c1ccc(F)cc1)c1cn(Cc2ccc(F)cc2)c2ccccc12)NCCc1ccccn1 (stereo not drawn) [B19, C1=CC=C2C(=C1)C(=CN2CC3=CC=C(C=C3)F)C(CC(=O)NCCC4=CC=CC=N4)C5=CC=C(C=C5)F] was tested. Which inhibition at 10 µM did it give?
A: 22.9%

Q: CCCCNC(=O)CC(c1cccc(C)c1)c1cn(Cc2ccc(F)cc2)c2ccccc12 (stereo not drawn) [B7, CCCCNC(=O)CC(C1=CC=CC(=C1)C)C2=CN(C3=CC=CC=C32)CC4=CC=C(C=C4)F] was tested. Which inhibition at 10 µM did it give?
A: 1.84%

Q: How did the inhibition at 10 µM turn out when O=S(=O)(c1ccc(F)cc1)N(c1ccc2c(c1)OCO2)C1CCN(Cc2cccnc2)CC1 [B31, C1CN(CCC1N(C2=CC3=C(C=C2)OCO3)S(=O)(=O)C4=CC=C(C=C4)F)CC5=CN=CC=C5] was run?
A: 16%

Q: How did the inhibition at 10 µM turn out when COc1ccc(Cn2cc(C(CC(=O)NCCc3ccccn3)c3ccc(C)cc3)c3ccccc32)cc1 (stereo not drawn) [B3, CC1=CC=C(C=C1)C(CC(=O)NCCC2=CC=CC=N2)C3=CN(C4=CC=CC=C43)CC5=CC=C(C=C5)OC] was run?
A: 14.2%

Q: For CCN1CCN(C(=O)CC(c2ccc(C(F)(F)F)cc2)c2cn(Cc3ccc(F)cc3)c3ccccc23)CC1 (stereo not drawn) [B21, CCN1CCN(CC1)C(=O)CC(C2=CC=C(C=C2)C(F)(F)F)C3=CN(C4=CC=CC=C43)CC5=CC=C(C=C5)F], which inhibition at 10 µM is on record?
A: 71.4%

Q: Which inhibition at 10 µM does the source give for O=C(CSc1nc(=O)n(Cc2cccnc2)c2c1CCC2)NCc1ccc(F)cc1 [A1, C1CC2=C(C1)N(C(=O)N=C2SCC(=O)NCC3=CC=C(C=C3)F)CC4=CN=CC=C4] here?
A: -0.67%

Q: For O=C(CC(c1ccc(C(F)(F)F)cc1)c1cn(Cc2ccccc2)c2ccccc12)NCCc1ccccn1 (stereo not drawn) [B32, C1=CC=C(C=C1)CN2C=C(C3=CC=CC=C32)C(CC(=O)NCCC4=CC=CC=N4)C5=CC=C(C=C5)C(F)(F)F], which inhibition at 10 µM is on record?
A: 16.6%
